PMC12281485, “High-Throughput Screening of Potent Drug-like Molecules Targeting 17β-HSD10 for the Treatment of Alzheimer’s Disease and Cancer” (ACS Chemical Biology, 2025)
Where two headings read alike, the source gives them in different places. Marks after values point to notes of the source that are not given here.

Tests used:
[1] = Mouse hepatocyte metabolic stability; format: in vitro ADME; design: k (elimination constant): unit not given here; details: mouse hepatocytes; for Heps category: metabolism category; for Cl (clearance): limits of quantitation 0.5 and 50; for half-life: read-out: T1/2 (half-life)
Description: (§1) Hepatocyte isolation, hepatocyte incubations for metabolic stability, plasma protein binding (PPB) experiments, and LC/MS sample analysis were carried out as previously described in Brandon et al. and MacLeod et al.
XLfit (IDBS, UK) was used to calculate the exponential decay and the rate constant (k) from the ratio of the peak area of the test compound to the internal standard at each time point. […] Verapamil, 7-ethoxycoumarin, 7-hydroxycoumarin, and phthalazine were used as positive controls to confirm acceptable assay performance. […] Values were transferred to RStudio v1.3.1093 (Posit, Boston, MA, USA) for generation of scatter plots and heatmaps using the ggplot2 package (Wickham 2016).

[2] = target: T1, 17β-HSD10 (Homo sapiens, UniProt Q99714); design: method as in Kissinger et al.; details: Table 5, ref Kissinger et al.; cited from earlier work
T1 construct: Recombinant 17β-HSD10 was expressed and purified as previously described in Aitken et al; made in house
T1 sequence (Q99714 1-261): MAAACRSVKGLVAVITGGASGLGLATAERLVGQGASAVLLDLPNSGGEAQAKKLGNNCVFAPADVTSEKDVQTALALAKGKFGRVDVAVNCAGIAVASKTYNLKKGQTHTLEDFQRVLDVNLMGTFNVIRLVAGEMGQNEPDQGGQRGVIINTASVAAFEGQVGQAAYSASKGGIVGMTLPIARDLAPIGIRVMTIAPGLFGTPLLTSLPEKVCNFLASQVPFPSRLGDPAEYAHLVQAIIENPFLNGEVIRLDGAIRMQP

[3] = target: T1, 17β-HSD10; assay: 17β-HSD10 enzyme inhibition dose-response assay (acetoacetyl-CoA/NADH, absorbance 340 nm); format: biochemical
Description: Recombinant 17β-HSD10 was expressed and purified as previously described in Aitken et al.
17β-HSD10 screening was carried out as described in Aitken et al. with the exception that experiments were also conducted in clear-bottom 1536-well low-volume microplates (Corning) with a final assay volume of 20 μL. For primary screening, an endpoint assay format was adopted, in which an Echo acoustic liquid dispenser (Labcyte) was used to transfer 20 nL of either DMSO control […] or test compounds (10 μM) to the assay plate. 10 μL of the 17β-HSD10 enzyme in an assay buffer (2.5 nM) was then added to the plates using the Preddator liquid handling robot (Redd and Whyte), and plates were incubated at RT for 15 min. 10 μL of the substrate mixture (100 μM acetoacetyl-CoA and 100 μM NADH) was added with the Preddator. To start the reaction, the plates were left to incubate for 35 min at RT before the absorbance at 340 nm was read on the EnVision plate reader (PerkinElmer). For the kinetic assay format and dose-response follow-up experiments, the same protocol was adopted, except that the absorbance at 340 nm was monitored constantly for 45 min from immediately after the reaction was started.

[4] = target: T1, 17β-HSD10; assay: Acetoacetyl-CoA and NADH enzyme kinetics (mode of inhibition); format: biochemical; details: for mode of inhibition with respect to acetoacetyl-CoA (AcAc): AcAc diluted from 1000 μM, 100 μM NADH; for mode of inhibition with respect to NADH: AcAc in excess at 800 μM, NADH diluted from 150 μM
Description: To determine the mode of inhibition, a matrix titration was used to calculate the kinetic parameters for acetoacetyl-CoA and NADH and the effect of 17β-HSD10 concentration upon reaction rate. Previously determined conditions as described in Aitken et al. were used. Data collected from the experiment were analyzed by plotting reaction progress curves to calculate the initial velocities, Vmax, and Km values using the Michaelis–Menten equation (XLFit, ID Business Solutions). Hanes Woolf plots were used to determine the mechanism of inhibition. Two compounds, ESC1002033 and ESC1002082, representative of the two unique clusters, were investigated for their mechanism of action against the substrates, NADH (Supplementary C, Figure S2) and AcetoAcetyl-CoA (AcAc) (Supplementary C, Figure S3). Both ESC1002033 and ESC1002082 inhibitors were tested as a 12-point serial dilution series with a maximal concentration of 2.5 μM. […] When investigating the effect of AcAc, it was diluted from 1000 μM with an excess of 100 μM NADH. Both inhibitors appear to have a similar mechanism of action. For NADH, with increasing concentration of the inhibitor, there is a decrease in Vmax (Figure SC1B) with no change in Km (Figure SC1C), which is characteristic of non-competitive (mixed) inhibition. This is also reflected by the convergence of the data to the left of the y axis on the Lineweaver–Burke plot (Figure SC1D). In contrast, with AcAc present, there was an increase in Kmapp with increasing inhibitor concentrations (Figure SC2C), which is characteristic of competitive inhibition. […] However, the data in Figure SC2D have been fitted for substrate inhibition (Y = V max × X/(Km + X × (1 + X/K i))), and the diagnostic Lineweaver–Burke plot also supports the conclusion that inhibition is competitive with AcAc (Figure SC2D).

[5] = tested on: HEK293 cells overexpressing 17β-HSD10; assay: LDH cytotoxicity assay; format: cell-based, human; details: 50 μM compound, 24 h, n = 3 ± SD
Description: Cell cytotoxicity was assessed via the measurement of LDH leakage into the culture medium using a commercially available kit from Pierce (Thermo Scientific cat no. 88953). This was carried out in accordance with the kit guidelines, with the activity of LDH being calculated from the change in absorbance at […]. Human embryonic kidney (HEK293) cells overexpressing 17β-HSD10 were cultured in phenol-red free media (10% FBS, 1 mM sodium pyruvate, 100 units penicillin, 0.1 mg mL^–1 streptomycin, and 2 mM L-glutamine) and seeded at a density of 10,000 cells per well (100 μL, 96-well plates). […] Treated cells were then incubated at 37 °C and CO2 (5%) for 24 h before the LDH assay was performed as per the manufacturer’s instructions. Spontaneous control (water) and maximum control (lysis buffer) were used in accordance with the kit guide. Absorbance was measured at 490 and 680 nm using the SpectraMaxM2e spectrophotometer. The measured LDH activity was used to calculate %cytotoxicity using the following equation (eq ): %cytotoxicity=(compoundtreatedLDHactivity−spontaneousLDHactivity)/(maximumLDHactivity−spontaneousLDHactivity)×100 1

[6] = tested on: HEK293 cells overexpressing 17β-HSD10; assay: Alamar Blue cell viability assay; format: cell-based, human; details: 50 μM compound, 24 h, n = 3 ± SD
Description: (§2) Cell viability was assessed via fluorescence change using the commercially available Alamar Blue from ThermoFisher. HEK293 cells overexpressing 17β-HSD10 were cultured in phenol-red free media (10% FBS, 1 mM sodium pyruvate, 100 units penicillin, 0.1 mg mL^–1 streptomycin, and 2 mM L-glutamine) and seeded at a density of 10,000 cells per well (100 μL, 96-well plates). […] Treated cells were then incubated at 37 °C and CO2 (5%) for 24 h before the assay was performed as per the manufacturer’s instructions. Fluorescence was measured at 530 nm excitation and 590 nm emission using the SpectraMaxM2e spectrophotometer.

[7] = target: T1, 17β-HSD10; assay: (−)-CHANA fluorescence assay of cellular 17β-HSD10 activity; format: cell-based; details: read-out: cellular 17β-HSD10 activity mean pEC50 (converted)
Description: (−)–CHANA ((−)-cyclohexenyl amino naphthalene alcohol) is a fluorogenic probe that can be used to detect 17β-HSD10 activity in living cells. HEK293 17β-HSD10 cells were seeded at a density of 10,000 cells per well (100 μL, 96-well black plates) in phenol-red free media (10% FBS, 1 mM sodium pyruvate, 100 units penicillin, 0.1 mg mL^–1 streptomycin, and 2 mM L-glutamine). […] The fluorogenic probe (−)–CHANA was then added to each well to give a final assay concentration of 20 μM. Fluorescence was immediately measured using the FLUOstar Optima microplate reader (excitation = 380 nm, emission = 520 nm, orbital averaging = 3 mm), and the initial reaction was monitored for 3–4 h. EC50 was calculated from the control-subtracted triplicates using nonlinear regression (four parameters) of GraphPad Prism 5 software. The Final EC50 and SEM values were obtained as a mean of at least three independent measurements.

[8] = Alamar Blue cell viability assay; format: cell-based, human; details: human, HEK293 cells overexpressing 17β-HSD10, 50 μM compound, n = 3 ± SD, read-out: Alamar Blue % viability (50 μM dose)
Description: as §2

[9] = Mouse plasma protein binding; format: in vitro ADME; details: read-out: mouse PPB (% free)
Description: as §1

[10] = Table 2, chemically modified cluster hit compounds, read-out: 17β-HSD10 pIC50 (converted)
[11] = Table 5, read-out: mean 17β-HSD10 pIC50 (converted)
[12] = Table 4, 17β-HSD10 overexpressing HEK293 cells, CHANA fluorescence assay
[13] = Table 3, chemically modified singleton hit compound series, read-out: 17β-HSD10 pIC50 (converted)
[14] = Table 5, HEK293 17β-HSD10 cells, CHANA assay

k (elimination constant) [1]	Heps category [1]	Cl (clearance) [1]	half-life [1]	EC50 [7, 12]	EC50 [7, 14]	SMILES	LDH % toxicity (50 μM dose) [5]	Alamar Blue % viability (50 μM dose) [6]	other results
0.11	High	>50 mL/min/g liver	–	–	–	O=C(C(c1ccccc1)n1cnc2[nH]ncc2c1=S)N1CCCCCC1 (centres unmarked) [AG18051, reference compound]	–	–	T1/2 (half-life) [1]: 6.6 min; mean 17β-HSD10 pIC50 [2]: 7.04 ^b
0.013	mod	6.2 mL/min/g liver	53.8 min	–	–	CC(C)CN(C(=O)c1ccccc1F)c1cccc(N(C)Cc2cnc[nH]2)c1 [ESC1002033]	–	–	IC50 [3, 10]: 200 nM; IC50 [3, 11]: 200 nM; mode of inhibition with respect to acetoacetyl-CoA (AcAc) [4]: competitively; mode of inhibition with respect to NADH [4]: non-competitively
–	–	–	–	–	–	COc1ccc(-c2ccccc2C2CCCN2C(=O)c2sccc2C)cn1 (centres unmarked) [ESC1002082]	–	–	LipE [3]: 1.45; LipE ([3]; Table 1, lipophilic efficiency): 1.45; mode of inhibition with respect to acetoacetyl-CoA (AcAc) [4]: competitively; mode of inhibition with respect to NADH [4]: non-competitively
–	–	–	–	1130 nM	–	COc1ccc(-c2ccccc2[C@H]2CCCN2C(=O)c2sccc2C)cn1 [ESC1002162]	6.84 ± 0.02%	78.79 ± 0.91%	17β-HSD10 pIC50 ([3]; Supplementary B, Table S1 and text, enantiomers): 6.31
–	–	–	–	2460 nM	–	Cc1ncc(CN(C)c2cccc(N(CC(C)C)C(=O)c3ccccc3F)c2)[nH]1 [ESC1002203]	6.64 ± 0.03%	82.98 ± 1.25%	fold less potent than ESC1002033 ([3]; relative to ESC1002033): approximately 3 fold
–	–	–	–	671 nM	–	COc1cccc(-c2ccccc2C2CCCN2C(=O)c2sccc2C)c1 (centres unmarked) [ESC1002421]	5.16 ± 0.01%	102.63 ± 1.32%	IC50 [3, 13]: 186 nM
0.018	high	8.6 mL/min/g liver	38.5 min	141 nM	141 nM	CC(C)CN(C(=O)c1c(F)cccc1F)c1cccc(N(C)Cc2c[nH]cn2)c1 [ESC1002456]	4.78 ± 0.01%	–	IC50 [3, 10]: 138 nM; IC50 [3, 11]: 138 nM; viability at 24 h, 50 μM [8]: 79.2 ± 1.21%; fraction unbound [9]: 0.089
0.012	mod	5.8 mL/min/g liver	57.2 min	367 nM	367 nM	Cc1ccc(C(=O)N(CC(C)C)c2cccc(N(C)Cc3c[nH]cn3)c2)c(F)c1 [ESC1002575]	4.78 ± 0.02%	–	IC50 [3, 10]: 269 nM; IC50 [3, 11]: 269 nM; viability at 24 h, 50 μM [8]: 92.57 ± 0.47%; fraction unbound [9]: 0.076
0.02	Mod	7.2 mL/min/g liver	–	511 nM	511 nM	Cc1ccsc1C(=O)N(CC(C)C)c1cccc(N(C)Cc2c[nH]cn2)c1 [ESC1002597]	4.98 ± 0.04%	78.78 ± 1.72%	mean 17β-HSD10 pIC50 ([3]; Table 5): 6.4; T1/2 (half-life) [1]: 46.2 min
–	–	–	–	232 nM	–	O=C(c1sccc1Cl)N1CCCC1c1ccccc1-c1ccc(F)c(O)c1 (centres unmarked) [ESC1002838]	5.58 ± 0.03%	94.28 ± 1.31%	IC50 [3, 13]: 51.3 nM
0.17	high	>50 mL/min/g liver	4 min	40 nM	40 nM	O=C(c1sccc1Cl)N1CCC[C@H]1c1ccccc1-c1cc(O)ccc1F [ESC1002842]	5.90 ± 0.004%	–	IC50 [3, 13]: 40.7 nM; viability at 24 h, 50 μM [8]: 82.44 ± 0.32%; fraction unbound [9]: 0.034
